Test results: the supplement of paper PMC10307832

Tests used:
Assay in all cases: relative viability (nuclei count vs DMSO), 5 days (fraction); higher = more cells survive
PAC-1 + Crizotinib = compound: C=CCc1cccc(/C=N/NC(=O)CN2CCN(Cc3ccccc3)CC2)c1O [PAC-1] + C[C@@H](Oc1cc(-c2cnn(C3CCNCC3)c2)cnc1N)c1c(Cl)ccc(F)c1Cl [Crizotinib] (partner 1 µM)
Outline: (§1)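 A single step with final 0.05% Triton X-100, 1% formaldehyde and 1 ug/ml Hoechst fixed the cells and stained nuclei 5 days after treatment. Lung cancer cell lines in 1536-well plates had been treated by pin tool the day after seeding with one drug alone or a fixed anchor-drug dose plus five library-drug doses (not always all listed) in √10 steps, and nuclei were counted on 4× images. Relative viability is the ratio of nuclei in treated wells to nuclei in vehicle wells, taken as the median of duplicate plates.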

PAC-1 + Phenformin = compound: C=CCc1cccc(/C=N/NC(=O)CN2CCN(Cc3ccccc3)CC2)c1O [PAC-1] + N=C(N)NC(=N)NCCc1ccccc1 [Phenformin] (partner 250 µM)
Outline: as §1

PAC-1 + OSI-027 = compound: C=CCc1cccc(/C=N/NC(=O)CN2CCN(Cc3ccccc3)CC2)c1O [PAC-1] + COc1cccc2cc(-c3nc([C@H]4CC[C@H](C(=O)O)CC4)n4ncnc(N)c34)[nH]c12 [OSI-027] (partner 0.5 µM)
Outline: as §1

BMX-IN-1 + Bortezomib = compound: C=CC(=O)Nc1cc(-n2c(=O)ccc3cnc4ccc(-c5ccc(NS(C)(=O)=O)cc5)cc4c32)ccc1C [BMX-IN-1] + CC(C)C[C@H](NC(=O)[C@H](Cc1ccccc1)NC(=O)c1cnccn1)B(O)O [Bortezomib] (partner 0.002 µM)
Outline: as §1

BMX-IN-1 + AZD7762 = compound: C=CC(=O)Nc1cc(-n2c(=O)ccc3cnc4ccc(-c5ccc(NS(C)(=O)=O)cc5)cc4c32)ccc1C [BMX-IN-1] + NC(=O)Nc1cc(-c2cccc(F)c2)sc1C(=O)N[C@H]1CCCNC1 [AZD7762] (partner 0.2 µM)
Outline: as §1

**Q.** Which relative viability (PAC-1 + Crizotinib; first compound 0.02 µM) does the source give for NCI-H2228 here?
**A.** 0.467

**Q.** And the relative viability (PAC-1 + Crizotinib; first compound 0.06325 µM)?
**A.** 0.416

**Q.** What about the relative viability (PAC-1 + Crizotinib; first compound 0.2 µM) of the same cell line?
**A.** 0.498

**Q.** And the relative viability (PAC-1 + Crizotinib; first compound 2 µM)?
**A.** 0.398

**Q.** And the relative viability (PAC-1 + Phenformin; first compound 0.02 µM)?
**A.** 0.303

**Q.** What about the relative viability (PAC-1 + Phenformin; first compound 0.06325 µM) of the same cell line?
**A.** 0.303

**Q.** What about the relative viability (PAC-1 + Phenformin; first compound 0.2 µM) of the same cell line?
**A.** 0.306

**Q.** And the relative viability (PAC-1 + Phenformin; first compound 2 µM)?
**A.** 0.318

**Q.** What about the relative viability (PAC-1 + OSI-027; first compound 0.02 µM) of the same cell line?
**A.** 0.543

**Q.** What about the relative viability (PAC-1 + OSI-027; first compound 0.06325 µM) of the same cell line?
**A.** 0.513

**Q.** What about the relative viability (PAC-1 + OSI-027; first compound 0.2 µM) of the same cell line?
**A.** 0.512

**Q.** What about the relative viability (PAC-1 + OSI-027; first compound 2 µM) of the same cell line?
**A.** 0.564

**Q.** And the relative viability (BMX-IN-1 + Bortezomib; first compound 0.02 µM)?
**A.** 1.66

**Q.** And the relative viability (BMX-IN-1 + Bortezomib; first compound 0.2 µM)?
**A.** 1.03

**Q.** And the relative viability (BMX-IN-1 + Bortezomib; first compound 0.6325 µM)?
**A.** 1.47

**Q.** And the relative viability (BMX-IN-1 + Bortezomib; first compound 2 µM)?
**A.** 1.12

**Q.** What does the source list for NCI-H2342?
**A.** relative viability (PAC-1 + Phenformin; first compound 0.02 µM): 0.552; relative viability (PAC-1 + Phenformin; first compound 0.06325 µM): 0.474; relative viability (PAC-1 + Phenformin; first compound 0.2 µM): 0.579; relative viability (PAC-1 + Phenformin; first compound 2 µM): 0.611; relative viability (PAC-1 + OSI-027; first compound 0.02 µM): 0.653; relative viability (PAC-1 + OSI-027; first compound 0.06325 µM): 0.574; relative viability (PAC-1 + OSI-027; first compound 0.2 µM): 0.65; relative viability (PAC-1 + OSI-027; first compound 2 µM): 0.682; relative viability (BMX-IN-1 + AZD7762; first compound 0.02 µM): 0.454; relative viability (BMX-IN-1 + AZD7762; first compound 0.2 µM): 0.484; relative viability (BMX-IN-1 + AZD7762; first compound 0.6325 µM): 0.492; relative viability (BMX-IN-1 + AZD7762; first compound 2 µM): 0.447

**Q.** How did the relative viability (PAC-1 + Crizotinib; first compound 0.02 µM) turn out when SK-LU-1 was run?
**A.** 0.788

**Q.** What about the relative viability (PAC-1 + Crizotinib; first compound 0.06325 µM) of the same cell line?
**A.** 0.856

**Q.** And the relative viability (PAC-1 + Crizotinib; first compound 0.2 µM)?
**A.** 0.93

**Q.** What about the relative viability (PAC-1 + Crizotinib; first compound 2 µM) of the same cell line?
**A.** 0.794

**Q.** What about the relative viability (PAC-1 + Phenformin; first compound 0.02 µM) of the same cell line?
**A.** 0.568

**Q.** What about the relative viability (PAC-1 + Phenformin; first compound 0.06325 µM) of the same cell line?
**A.** 0.547

**Q.** What about the relative viability (PAC-1 + Phenformin; first compound 0.2 µM) of the same cell line?
**A.** 0.432

**Q.** And the relative viability (PAC-1 + Phenformin; first compound 2 µM)?
**A.** 0.587

**Q.** What about the relative viability (PAC-1 + OSI-027; first compound 0.02 µM) of the same cell line?
**A.** 0.338

**Q.** And the relative viability (PAC-1 + OSI-027; first compound 0.06325 µM)?
**A.** 0.363

**Q.** What about the relative viability (PAC-1 + OSI-027; first compound 0.2 µM) of the same cell line?
**A.** 0.287

**Q.** What about the relative viability (PAC-1 + OSI-027; first compound 2 µM) of the same cell line?
**A.** 0.326

**Q.** And the relative viability (BMX-IN-1 + Bortezomib; first compound 0.02 µM)?
**A.** 1.52

**Q.** And the relative viability (BMX-IN-1 + Bortezomib; first compound 0.2 µM)?
**A.** 1.47

**Q.** And the relative viability (BMX-IN-1 + Bortezomib; first compound 0.6325 µM)?
**A.** 1.22

**Q.** What about the relative viability (BMX-IN-1 + Bortezomib; first compound 2 µM) of the same cell line?
**A.** 1.07

**Q.** For SW 900, which relative viability (PAC-1 + Phenformin; first compound 0.02 µM) is on record?
**A.** 0.43

**Q.** What about the relative viability (PAC-1 + Phenformin; first compound 0.06325 µM) of the same cell line?
**A.** 0.575

**Q.** And the relative viability (PAC-1 + Phenformin; first compound 0.2 µM)?
**A.** 0.568

**Q.** And the relative viability (PAC-1 + Phenformin; first compound 2 µM)?
**A.** 0.415

**Q.** And the relative viability (PAC-1 + OSI-027; first compound 0.02 µM)?
**A.** 0.69

**Q.** What about the relative viability (PAC-1 + OSI-027; first compound 0.06325 µM) of the same cell line?
**A.** 0.828

**Q.** And the relative viability (PAC-1 + OSI-027; first compound 0.2 µM)?
**A.** 0.572

**Q.** And the relative viability (PAC-1 + OSI-027; first compound 2 µM)?
**A.** 0.496

**Q.** What about the relative viability (BMX-IN-1 + AZD7762; first compound 0.02 µM) of the same cell line?
**A.** 0.656

**Q.** And the relative viability (BMX-IN-1 + AZD7762; first compound 0.2 µM)?
**A.** 0.636

**Q.** What about the relative viability (BMX-IN-1 + AZD7762; first compound 0.6325 µM) of the same cell line?
**A.** 0.735

**Q.** And the relative viability (BMX-IN-1 + AZD7762; first compound 2 µM)?
**A.** 0.666

**Q.** How did the relative viability (PAC-1 + Crizotinib; first compound 0.02 µM) turn out when SW 1573 was run?
**A.** 0.786

**Q.** And the relative viability (PAC-1 + Crizotinib; first compound 0.06325 µM)?
**A.** 0.658

**Q.** What about the relative viability (PAC-1 + Crizotinib; first compound 0.2 µM) of the same cell line?
**A.** 0.701

**Q.** What about the relative viability (PAC-1 + Crizotinib; first compound 2 µM) of the same cell line?
**A.** 0.839

**Q.** And the relative viability (PAC-1 + Phenformin; first compound 0.02 µM)?
**A.** 0.372

**Q.** And the relative viability (PAC-1 + Phenformin; first compound 0.06325 µM)?
**A.** 0.352

**Q.** What about the relative viability (PAC-1 + Phenformin; first compound 0.2 µM) of the same cell line?
**A.** 0.36

**Q.** And the relative viability (PAC-1 + Phenformin; first compound 2 µM)?
**A.** 0.303

**Q.** What about the relative viability (PAC-1 + OSI-027; first compound 0.02 µM) of the same cell line?
**A.** 0.642

**Q.** What about the relative viability (PAC-1 + OSI-027; first compound 0.06325 µM) of the same cell line?
**A.** 0.613

**Q.** What about the relative viability (PAC-1 + OSI-027; first compound 0.2 µM) of the same cell line?
**A.** 0.606

**Q.** What about the relative viability (PAC-1 + OSI-027; first compound 2 µM) of the same cell line?
**A.** 0.791

**Q.** And the relative viability (BMX-IN-1 + Bortezomib; first compound 0.02 µM)?
**A.** 1.38

**Q.** What about the relative viability (BMX-IN-1 + Bortezomib; first compound 0.2 µM) of the same cell line?
**A.** 1.06

**Q.** What about the relative viability (BMX-IN-1 + Bortezomib; first compound 0.6325 µM) of the same cell line?
**A.** 1.08

**Q.** And the relative viability (BMX-IN-1 + Bortezomib; first compound 2 µM)?
**A.** 0.996

**Q.** UMC-11 was tested. Which relative viability (PAC-1 + Crizotinib; first compound 0.02 µM) did it give?
**A.** 0.62

**Q.** And the relative viability (PAC-1 + Crizotinib; first compound 0.06325 µM)?
**A.** 0.606

**Q.** And the relative viability (PAC-1 + Crizotinib; first compound 0.2 µM)?
**A.** 0.546

**Q.** What about the relative viability (PAC-1 + Crizotinib; first compound 2 µM) of the same cell line?
**A.** 0.666

**Q.** And the relative viability (PAC-1 + Phenformin; first compound 0.02 µM)?
**A.** 0.325

**Q.** And the relative viability (PAC-1 + Phenformin; first compound 0.06325 µM)?
**A.** 0.368

**Q.** And the relative viability (PAC-1 + Phenformin; first compound 0.2 µM)?
**A.** 0.298

**Q.** What about the relative viability (PAC-1 + Phenformin; first compound 2 µM) of the same cell line?
**A.** 0.326

**Q.** And the relative viability (PAC-1 + OSI-027; first compound 0.02 µM)?
**A.** 0.546

**Q.** What about the relative viability (PAC-1 + OSI-027; first compound 0.06325 µM) of the same cell line?
**A.** 0.459

**Q.** What about the relative viability (PAC-1 + OSI-027; first compound 0.2 µM) of the same cell line?
**A.** 0.461

**Q.** And the relative viability (PAC-1 + OSI-027; first compound 2 µM)?
**A.** 0.472

**Q.** And the relative viability (BMX-IN-1 + Bortezomib; first compound 0.02 µM)?
**A.** 0.929

**Q.** What about the relative viability (BMX-IN-1 + Bortezomib; first compound 0.2 µM) of the same cell line?
**A.** 0.625

**Q.** And the relative viability (BMX-IN-1 + Bortezomib; first compound 0.6325 µM)?
**A.** 1.19

**Q.** And the relative viability (BMX-IN-1 + Bortezomib; first compound 2 µM)?
**A.** 0.791
